Reference: patent US8940943B2, “Cosmetic preparations” (Cognis IP Management GmbH, priority 2010, dated 2015)

How the values were obtained:
human skin [1] = test: occlusive epicutaneous 24 h patch test (skin compatibility)
Description: The di(2-propylheptyl)ether obtained according to production example 2 was compared in an occlusive epicutaneous 24 h patch test against the commercially available di-n-octyl ether. […] 24 after application the patch was removed, after a further 6 hours the first visual assessment was carried out, further assessments were carried out 24, 48 and 72 hours after the patch was removed.
The assessment was based on a scale from 0 (no reaction) to 4 (strong reaction) in the categories: erythema formation, edema formation, formation of scales (=squamation) and formation of cracks (=fissuration). A so-called total irritation score RSS value was found from the values obtained.

human skin [2] = test: in-vivo patch test, 24 hours on human skin, skin reddening or irritation; details: compared to diethylhexyl ether, water and surfactant solution as negative and positive standards
Description: In an in-vivo patch test, the test substances are applied on human skin and left there for 24 hours. Then an assessment is made with respect to possible occurrence of skin reddening or irritation. As comparison, in each case water and a surfactant solution are tested as negative and positive standards.

Compound	total irritation score RSS (human skin [1]; human, in vivo, 24 h)	skin compatibility (human skin [2])	total irritation score RSS (human skin [1]; 22 test subjects, applied on back, occlusive 24 h patch (Finn Chambers), assessed 6, 24, 48 and 72 h after patch removal, scale 0-4 for erythema, edema, squamation, fissuration)
CCCCCCCCOCCCCCCCC [Di-n-alkyl ether (Cetiol ® OE), di-n-octyl ether]	7.1	–	–
CCCCCC(CCC)COCC(CCC)CCCCC (stereo not shown) [Di(2-propylheptyl)ether]	3.62	improved skin compatibility	–
CCCCCCCCCCCCOS(=O)(=O)[O-].[Na+] [Positive control, sodium dodecyl sulfate]	–	–	7.95
